Experimental data: patent US20110190123A1, “SLOW-RELEASE FORMULATIONS CONTAINING QUILLAY EXTRACTS, FOR CONTROLLING WHEAT TAKE-ALL DISEASE” (priority 2008, published 2011)

What was measured:
[1] = system: Ggt; experiment: Plant pot experiments, control of take-all in wheat (Take-All Index); assay type: in vivo, Gaeumannomyces graminis
Method: Agronomic evaluation of control effectiveness of the formulations developed on the Ggt fungus was conducted through the establishment of 26 experiments in plant pots. These experiments allowed to evaluate new formulations, or correct defective aspects of the formulations developed. Evaluation methodology was made under greenhouse and awning conditions, considering: soil use of Yerbas Buenas ([…] Region VII), which was sterilized by autoclave and inoculated with Ggt grown in oat grains during 40 days. Soil was placed in PVC plant pots arranged on a wooden plate, where it was seeded with a wheat seed of cv. Dalcahue-INIA.
In these experiences two sample treatments were used (with and without inoculum) and one commercial sample Silthiofam (Latitude®, Monsanto) in dosis of 2 L/ton of seed to compare the effectiveness of different slow release formulations or “Slow release” based on quillay extract.

[2] = system: Gaeumannomyces graminis; experiment: Field tests in Region IX of Chile, root rot in wheat plants; assay type: in vivo; conditions: four field experiments, highly rainy season
Text: This invention refers to natural fungicides used in seed treatment or soil treatment, that are obtained from quillay extract formulation, rich in saponin concentrations, to which synthetic polymers have been adhered (latex and resins) allowing its slow release in the soil, and which efficiency and control have been tested at a plant pot and field experiment level on fungus Gaeumannomyces graminis, which is the cause of take-all of wheat.

[3] = FIG. 6 experiment, Oct. 3, 2005
[4] = average of plant pot experiments

For `C=CCNC(=O)c1c([Si](C)(C)C)sc(C)c1C` [Silthiofam], the “control with respect to the inoculated sample” value ([1]; FIG. 2 experiment, seed treatment, Silthiofam 2 L/ton of seed) was 44%, the “control with respect to the inoculated sample” value ([1]; FIG. 3 experiment, seed treatments, QL 1000 4 L per ha) was 50.8% and the “Take-All Index (TAI)” value [1, 3] was 28. For the same compound, the “control with respect to the non-treated sample” value [1, 3] was 71%, the “Take-All Index (TAI), average among all experiences” value [1, 4] was 24.6 and the “average control level with respect to the inoculated sample” value [1, 4] was 67.5%. For the same compound, the “effectiveness in field experiments” value [2] was “did not show effectiveness”.
